Test results as given in paper PMC2528936, “Snake Cathelicidin from Bungarus fasciatus Is a Potent Peptide Antibiotics” (PLoS ONE, 2008).
Converted amounts (≈) assume the structure as drawn. Like-named read-outs stand apart in the source and are kept apart here. Where a SMILES comes first, the peptide text is derived from it. Bridges are numbered along the chain shown (N, C = ends).

How the values were obtained:
[1] = tested on: Bacillus subtilis; test: microbe, parasite or virus in culture
Procedure: (§1) Antimicrobial activities of cathelicidin-BF and cathelicidin-BF15 ([…]) were tested according to our previous methods [39]–[42]. […] The details were provided in the Materials and Methods S1.
(§2) Standard and clinically isolated microorganism strains were used for antimicrobial assays. Bacteria were first grown in LB (Luria-Bertani) broth to an OD600 nm of 0.8. A 10 µl aliquot of the bacteria was then taken and added to 8 ml of fresh LB broth with 0.7% agar and poured over a 90 mm Petri dish containing 25 ml of 1.5% agar in LB broth. After the top agar hardened, a 20 µl aliquot of the test sample filtered on a 0.22 µm Millipore filter was dropped onto the surface of the top agar and completely dried before being incubated overnight at 37 °C. If the sample examined had antimicrobial activity, a clear zone would be formed on the surface of the top agar representing inhibition of bacterial growth. Minimal inhibitory concentration (MIC) was determined in liquid LB medium by incubating the bacteria in LB broth with variable amounts of the sample tested. The MIC at which no visible growth occurred was recorded. In the assays of anti-fungi activity, for strains of Aspergillus terreus, A. niculans, and Chaetomium globosum, the fungal spore concentration was first counted under a microscope. The fungi with an initial concentration of 10^5 spores/ml were cultured with variable amounts of the sample tested in yeast extract-peptone-dextrose broth.

[2] = tested on: Candida albicans ATCC2002; test: microbe, parasite or virus in culture
Procedure: as §1, §2

[3] = tested on: Escherichia coliATCC25922; test: microbe, parasite or virus in culture
Procedure: as §1, §2

[4] = tested on: Pseudomonas aeruginosa ATCC27853; test: microbe, parasite or virus in culture; details: ATCC27853
Procedure: as §1, §2

[5] = tested on: Staphylococcus aureus ATCC2592; test: microbe, parasite or virus in culture; details: ATCC2592
Procedure: as §1, §2

[6] = tested on: E. coli 08A866(IS, DR); details: clinically isolated strain, drug resistance for ampicillin and benzylpenicillin; liquid LB broth; mean of three independent experiments in duplicates; ND = no detectable activity
Procedure: as §1, §2

[7] = tested on: E. coli 08A866; format: cell-based, Escherichia coli; details: for Amount of bacteria co-cultured with sample: Table 4, LB, 35 °C
Procedure: The details were provided in the Materials and Methods S1.
Fresh overnight colonies were added to a total of 20 ml LB, and incubated on a 35 °C water bath. After one hour of incubation, 1 ml broth from each flask was replaced with the test solution. The colony counting was performed at different time after addition of the test solutions as described by Mygind et al.

[8] = tested on: Acinetobacter calcoaceticus; test: microbe, parasite or virus in culture; details: Acinetobacter calcoaceticus
Procedure: as §1, §2

[9] = tested on: Bacillus cereus; test: microbe, parasite or virus in culture; details: Bacillus cereus
Procedure: as §1, §2

[10] = tested on: Bacillus pumilus; test: microbe, parasite or virus in culture; details: Bacillus pumilus
Procedure: as §1, §2

[11] = tested on: Aspergillus niculans; details: saprophytic fungus; 10^5 spores/ml, yeast extract-peptone-dextrose broth; mean of three independent experiments in duplicates; ND = no detectable activity
Procedure: as §1, §2

[12] = tested on: Aspergillus terreus GIM3.34; details: saprophytic fungus; 10^5 spores/ml, yeast extract-peptone-dextrose broth; mean of three independent experiments in duplicates; ND = no detectable activity
Procedure: as §1, §2

[13] = tested on: Chaetomium globosum; details: saprophytic fungus; 10^5 spores/ml, yeast extract-peptone-dextrose broth; mean of three independent experiments in duplicates; ND = no detectable activity
Procedure: as §1, §2

[14] = tested on: K. pneumoniae standard strain; test: MIC determination, standard strain; format: cell-based; details: Klebsiella pneumoniae
Procedure: as §1
as §2, with “The fungi with an initial concentration of 10^5 spores/ml were cultured with variable amounts of the sample tested in yeast extract-peptone-dextrose broth.” left out

Question: `CC[C@H](C)[C@H](NC(=O)[C@H](C)NC(=O)[C@@H](NC(=O)[C@@H]1CCCN1C(=O)[C@H](CC(C)C)NC(=O)[C@@H](NC(=O)[C@H](CO)NC(=O)[C@@H](NC(=O)[C@H](C)NC(=O)[C@@H](NC(=O)[C@H](CCCCN)NC(=O)[C@H](CC(C)C)NC(=O)[C@@H](NC(=O)[C@@H]1CCCN1C(=O)CNC(=O)[C@@H](NC(=O)[C@@H](N)Cc1ccccc1)[C@@H](C)CC)C(C)C)[C@@H](C)CC)[C@@H](C)O)[C@@H](C)CC)[C@@H](C)O)C(=O)N[C@H]1CSSC[C@@H](C(=O)O)NC(=O)[C@H](CCCCN)NC(=O)[C@H](CCCCN)NC(=O)[C@H](Cc2ccccc2)NC(=O)[C@H]([C@@H](C)CC)NC(=O)[C@H](CCCCN)NC1=O` [HDW] (H-FIGPVLKIATSILPTAICKIFKKC-OH; disulfide 18-24 (inferred); N-terminus and C-terminus assumed) was tested. Which MIC [1] did it give?
Answer: The MIC was 2.3 µg/mL (≈ 0.883 µM).

Question: And the MIC [2]?
Answer: The MIC was 2.3 µg/mL (≈ 0.883 µM).

Question: What about the MIC ([3]; ATCC25922) of the same compound?
Answer: The MIC was 18.7 µg/mL (≈ 7.18 µM).

Question: What about the MIC [4] of the same compound?
Answer: Its MIC is 37.5 µg/mL (≈ 14.4 µM).

Question: What about the MIC [5] of the same compound?
Answer: Its MIC is 1.2 µg/mL (≈ 0.461 µM).

Question: What about the MIC [6] of the same compound?
Answer: Its MIC is 18.7 µg/mL (≈ 7.18 µM).

Question: And the “Amount of bacteria co-cultured with sample” value (“Amount” below) ([7]; sample at 1 times MIC, time 0.1 min)?
Answer: The value was 49 CFU.

Question: And the “Amount” value ([7]; sample at 1 times MIC, time 1 min)?
Answer: The value was 14.7 CFU.

Question: What about the “Amount” value ([7]; sample at 1 times MIC, time 10 min) of the same compound?
Answer: The value was 0 CFU.

Question: And the “Amount” value ([7]; sample at 1 times MIC, time 30 min)?
Answer: Its value is 0 CFU.

Question: And the “Amount” value ([7]; sample at 10 times MIC, time 0.1 min)?
Answer: The value was 38 CFU.

Question: What about the “Amount” value ([7]; sample at 10 times MIC, time 1 min) of the same compound?
Answer: Its value is 3.7 CFU.

Question: What about the “Amount” value ([7]; sample at 10 times MIC, time 10 min) of the same compound?
Answer: Its value is 0 CFU.

Question: What about the “Amount” value ([7]; sample at 10 times MIC, time 30 min) of the same compound?
Answer: Its value is 0 CFU.

Question: And the “time to clean E. coli” value ([7]; killing kinetics during 30 min (Table 4), comparison of cathelicidin-BF and HDW)?
Answer: Its value is “several minutes”.

Question: Which MIC [8] does the source give for `CC1(C)S[C@@H]2[C@H](NC(=O)[C@H](N)c3ccccc3)C(=O)N2[C@H]1C(=O)O` [ampicillin] here?
Answer: Its MIC is 75 µg/mL (≈ 215 µM).

Question: And the MIC [9]?
Answer: Its MIC is 150 µg/mL (≈ 429 µM).

Question: What about the MIC [10] of the same compound?
Answer: The MIC was 0.15 µg/mL (≈ 0.429 µM).

Question: And the MIC ([1]; Bacillus subtilis)?
Answer: The MIC was 0.02 µg/mL (≈ 0.0572 µM).

Question: What about the MIC ([2]; Candida albicans) of the same compound?
Answer: Its MIC is 0.3 µg/mL (≈ 0.859 µM).

Question: And the MIC ([3]; Escherichia, COLIATCC25922)?
Answer: Its MIC is 18.7 µg/mL (≈ 53.5 µM).

Question: And the MIC ([4]; Pseudomonas aeruginosa)?
Answer: Its MIC is 150 µg/mL (≈ 429 µM).

Question: What about the MIC ([5]; Staphylococcus aureus) of the same compound?
Answer: Its MIC is 0.15 µg/mL (≈ 0.429 µM).

Question: What about the MIC [11] of the same compound?
Answer: Its MIC is “no effect”.

Question: What about the MIC [12] of the same compound?
Answer: Its MIC is “no effect”.

Question: What about the MIC [13] of the same compound?
Answer: The MIC was “no effect”.

Question: What about the MIC [14] of the same compound?
Answer: Its MIC is 150 µg/mL (≈ 429 µM).
